Assays:
[1] = biological target: T1, neuronal nicotinic acetylcholine receptors (Rattus norvegicus, UniProt P09483+P12390); test: [3H]-cytisine binding to neuronal nicotinic acetylcholine receptors, crude synaptic membranes from whole rat brain; conditions: [3H]-CYT 1.25 nM, whole rat brain membranes, 60 minutes at 4° C.; Cheng and Prusoff correction; Table 1; read-out: Ki
T1 construct: crude synaptic membrane preparations from whole rat brain; from tissue; host or cells: whole rat brain, crude synaptic membranes
T1 sequence (P09483 31-630): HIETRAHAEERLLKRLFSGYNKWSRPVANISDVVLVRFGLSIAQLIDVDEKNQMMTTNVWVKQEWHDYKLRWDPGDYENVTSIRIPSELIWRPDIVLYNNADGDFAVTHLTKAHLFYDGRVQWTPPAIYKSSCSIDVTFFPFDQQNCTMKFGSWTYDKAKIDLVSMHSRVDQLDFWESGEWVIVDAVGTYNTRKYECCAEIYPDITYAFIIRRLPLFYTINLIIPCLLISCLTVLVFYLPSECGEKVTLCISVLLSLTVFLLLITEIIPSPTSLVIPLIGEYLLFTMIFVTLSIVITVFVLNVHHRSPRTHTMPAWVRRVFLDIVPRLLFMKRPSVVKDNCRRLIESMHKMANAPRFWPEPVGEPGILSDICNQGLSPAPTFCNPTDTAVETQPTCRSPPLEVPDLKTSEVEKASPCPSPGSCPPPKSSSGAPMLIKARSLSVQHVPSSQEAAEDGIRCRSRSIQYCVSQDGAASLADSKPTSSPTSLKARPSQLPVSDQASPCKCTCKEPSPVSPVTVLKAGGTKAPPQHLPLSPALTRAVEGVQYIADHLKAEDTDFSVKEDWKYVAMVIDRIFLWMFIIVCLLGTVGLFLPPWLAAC
T1 sequence (P12390 25-500): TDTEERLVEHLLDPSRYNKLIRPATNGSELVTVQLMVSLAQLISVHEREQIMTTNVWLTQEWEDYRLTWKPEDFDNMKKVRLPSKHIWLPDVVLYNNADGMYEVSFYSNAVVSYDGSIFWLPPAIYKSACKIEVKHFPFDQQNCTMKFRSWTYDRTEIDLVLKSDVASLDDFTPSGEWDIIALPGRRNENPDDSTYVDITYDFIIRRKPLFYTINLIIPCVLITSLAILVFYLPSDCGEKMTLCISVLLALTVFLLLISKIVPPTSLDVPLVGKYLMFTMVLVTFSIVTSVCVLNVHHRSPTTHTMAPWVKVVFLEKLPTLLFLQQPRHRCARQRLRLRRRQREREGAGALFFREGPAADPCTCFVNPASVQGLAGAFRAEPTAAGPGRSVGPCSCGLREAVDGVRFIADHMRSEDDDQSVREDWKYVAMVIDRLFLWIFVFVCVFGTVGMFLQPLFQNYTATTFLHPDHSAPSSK
Procedure: The in vitro protocols for determination of nicotinic acetylcholine channel receptor binding potencies of ligands was determined as follows.
Binding of [^3H]-cytisine ([^3H]-CYT) to neuronal nicotinic acetylcholine receptors was accomplished using crude synaptic membrane preparations from whole rat brain (Pabreza et al., Molecular Pharmacol., 1990, 39:9). Washed membranes were stored at −80° C. prior to use. Frozen aliquots were slowly thawed and resuspended in 20 volumes of buffer (containing: 120 mM NaCl, 5 mM KCl, 2 mM MgCl2, 2 mM CaCl2 and 50 mM Tris-Cl, pH 7.4 @4° C.). After centrifuging at 20,000×g for 15 minutes, the pellets were resuspended in 30 volumes of buffer.
The test compounds were dissolved in water to make 10 mM stock solutions. Each solution was then diluted (1:100) with buffer (as above) and further taken through seven serial log dilutions to produce test solutions from 10^−5 to 10^−11 M.
Homogenate (containing 125-150 µg protein) was added to triplicate tubes containing the range of concentrations of test compound described above and [^3H]-CYT (1.25 nM) in a final volume of 500 μL. Samples were incubated for 60 minutes at 4° C., then rapidly filtered through Whatman GF/B filters presoaked in 0.5% polyethyleneimine using 3×4 mL of ice-cold buffer. The filters are counted in 4 mL of Ecolume® (ICN). Nonspecific binding was determined in the presence of 10 μM (−)-nicotine and values were expressed as a percentage of total binding. IC50 values were determined with a four-parameter non-linear regression and IC50 values were converted to K1 values using the Cheng and Prusoff correction (K1=IC50/(1+[ligand]/Kd of ligand).
Each Example number corresponds to the synthetic Examples described above. […] The lower the Ki value, the more affinity for neuronal nicotinic acetylcholine receptors.

mouse hot plate paradigm = mouse hot plate paradigm (analgesia, latency until tenth jump); type: in vivo; conditions: mice, intraperitoneal, dosed 30 minutes prior to testing, hot plate 55° C.; for Analgesic MED (μmol/kg): footnote symbols for no effect; for Analgesic MED: minimally effective dose among the doses tested
Procedure: An in vivo protocol was utilized to determine the effectiveness of nicotinic acetylcholine receptor ligands as analgesic agents in the mouse hot plate paradigm.
Separate groups of mice, (n=8/group) were utilized for each dose group. All drugs were administered by the intraperitoneal route of administration. Test drugs were dissolved in water to make a 6.2 mM stock solution. Animals were dosed with this solution (10 mL/kg body weight) for a 62 micromol/kg dose. Lower doses were administered similarly, following serial dilution of the stock solution in half-log increments. Animals were dosed 30 minutes prior to testing in the hot plate. The hot-plate utilized was an automated analgesia monitor (Model #AHP16AN, Omnitech Electronics, Inc. of Columbus, Ohio). The temperature of the hot plate was maintained at 55° C. and a cut-off time of 180 seconds was utilized. A control was run against each compound tested. Latency until the tenth jump was recorded as the dependent measure. An increase in the tenth jump latency relative to the control was considered a significant effect.

Compound	Ki [1] [nM]	Analgesic MED (μmol/kg) (mouse hot plate paradigm)	melting point [°C]	Analgesic MED (mouse hot plate paradigm) [µmol/kg]
CN(C)[C@H](COc1cnc(Cl)c(C=Cc2ccncc2)c1)Cc1ccccc1 [Example 24, 5-[(S)-2-N-dimethyl-amino-3-phenyl-1-propyloxy]-2-chloro-3-(4-vinylpyridinyl) pyridine di-p-toluenesulfonic acid]	4.63	* (no effect at 62)	81 to 83	–
CC(COc1cnc(Cl)c(C=Cc2ccncc2)c1)N(C)C (single isomer, unassigned) [Example 14]	0.367	* (no effect at 62)	79 to 81	–
CC[C@@H](COc1cnc(Cl)c(C=Cc2ccncc2)c1)N(C)C [Example 20, 5-[(S)-2-N-dimethylamino-1-butyloxy]-2-chloro-3-(4-vinylpyridinyl) pyridine di-p-toluenesulfonic acid]	3.61	–	73 to 75	–
CC[C@H](N)COc1ccc(Cl)nc1.Cc1ccc(S(=O)(=O)O)cc1 [Example 15, 5-[(S)-2-amino-1-butyloxy]-2-chloro pyridine p-toluenesulfonic acid]	14.7	* (no effect at 62)	–	–
CN[C@@H](C)COc1ccc(Cl)nc1.Cc1ccc(S(=O)(=O)O)cc1 [Example 3, 5-[(S)-2-methylamino-1-propyloxy]-2-chloro pyridine p-toluenesulfonic acid]	40.6	–	–	62
CN[C@H](C)COc1ccc(Cl)nc1.Cc1ccc(S(=O)(=O)O)cc1 [Example 28, 5-[(R)-2-methylamino-1-propyloxy]-2-chloropyridine p-toluenesulfonic acid]	5.87	–	–	62
CN[C@H](C)COc1ccc(F)nc1.Cc1ccc(S(=O)(=O)O)cc1 [Example 31, 5-[(R)-2-methylamino-1-propyloxy]-2-fluoro pyridine p-toluenesulfonic acid]	11.4	–	–	62
C[C@H](N)COc1ccc(Cl)nc1.Cc1ccc(S(=O)(=O)O)cc1 [Example 1, 5-[(S)-2-amino-1-propyloxy]-2-chloro pyridine p-toluenesulfonic acid]	4.51	–	–	62
Cc1cc(OC[C@@H](C)N(C)C)cnc1Cl.Cc1ccc(S(=O)(=O)O)cc1 [Example 36, 5-[(R)-2-dimethylamino-1-propyloxy]-2-chloro-3-methyl pyridine p-toluenesulfonic acid]	7.2	* (no effect at 62)	–	–
C[C@H](COc1ccc(F)nc1)N(C)C.Cc1ccc(S(=O)(=O)O)cc1 [Example 30, 5-[(R)-2-dimethylamino-1-propyloxy]-2-fluoro pyridine p-toluenesulfonic acid]	70.2	* (no effect at 62)	–	–
C[C@H](N)COc1cnc(Cl)c(Br)c1.Cc1ccc(S(=O)(=O)O)cc1 [Example 7, 5-[(S)-2-amino-1-propyloxy]-2-chloro-3-bromo pyridine p-toluenesulfonic acid]	1.55	* (no effect at 62)	–	–
CC(COc1cnc(Cl)c(C=Cc2ccncc2)c1)N(C)C (single isomer, unassigned) [Example 39]	0.103	* (no effect at 62)	81 to 83	–
C[C@@H](COc1ccc(F)nc1)N(C)C.Cc1ccc(S(=O)(=O)O)cc1 [Example 5, 5-[(S)-2-dimethylamino-1-propyloxy]-2-fluoro pyridine p-toluenesulfonic acid]	100	* (no effect at 62)	–	–
5-[(S)-2-amino-3-phenyl-1-propyloxy]-2-chloro-3-(4-vinylpyridinyl) pyridine di-p-toluenesulfonic acid [Example 23]	9.89	* (no effect at 62)	–	–
C[C@@H](N)COc1cnc(Cl)c(Br)c1.Cc1ccc(S(=O)(=O)O)cc1 [Example 32, 5-[(R)-2-amino-1-propyloxy]-2-chloro-3-bromo pyridine p-toluenesulfonic acid]	1.54	–	–	62

— patent US20010034357A1, “Substituted pyridine compounds useful for controlling chemical synaptic transmission” (priority 2000, published 2001)
